{"source": "patent US11345762B2", "about": "“Method for preparing liquid medium composition, and preparation device and kit therefor” (NISSAN CHEMICAL INDUSTRIES, LTD., priority 2015, dated 2022)", "key": {"[1]": {"tested_on": "Human pancreatic cancer cell line Panc02,03", "test": "Proliferation action on Panc02,03 cell stimulated by each growth factor (ATP, CellTiter-Glo)", "format": "cell-based"}, "[2]": {"tested_on": "Human lung cancer cell line A549", "test": "A549 cell proliferation suppressive test with anticancer agents in low adhesion plate (ATP, CellTiter-Glo)", "format": "cell-based", "method": "Deacylated gellan gum (KELCOGEL CG-LA, manufactured by Sansho Co., Ltd.) was suspended in ultra pure water (Milli-Q water) to 0.3% (w/v) or 0.75% (w/v), dissolved by stirring with heating at 90° C., and this aqueous solution was autoclave sterilized at 121° C. for 20 min. Using 0.3% solution, a medium composition was prepared by adding deacylated gellan gum (final concentration 0.015% (w/v)) to DMEM medium (manufactured by WAKO) containing 10% (v/v) fetal bovine serum. Fetal bovine serum was added at 10% (v/v) to a medium composition prepared in Example 7.\nHuman lung cancer cell line A549 (manufactured by DS PHARMA BIOMEDICAL) was seeded in the above-mentioned medium composition added with deacylated gellan gum (conventional method) or the medium composition of Example 7 at 14800 cells/mL, and dispensed to the wells of a 96 well flat bottom ultra-low adhesive surface microplate (Corning Incorporated manufactured by, #3474) at 135 μL per […]. As a negative control, A549 cells were suspended in the above-mentioned medium free of deacylated gellan gum and dispensed. Each plate was cultured in a static state in a CO2 incubator (37° C., 5% CO2). On day 1 of culture, medium compositions (conventional method and the production method of the present invention) containing each anticancer agent at 10-fold concentration and deacylated gellan gum (final concentration 0.015% (w/v)), and a medium composition containing each anticancer agent alone at 10-fold concentration (non-addition method), 15 μL each, was added to a final concentration of 0.001 to 30 μM, and culture was continued for 7 days. As the anticancer agent, Trametinib (manufactured by Santa Cruz, MEK inhibitor) and MK-2206 (manufactured by Santa Cruz, Akt inhibitor) were used. ATP reagent (150 μL, CellTiter-Glo™ Luminescent Cell Viability Assay, manufactured by Promega) was added to the culture media on days 5 and 8 and suspended therein, stood for about 10 min at room temperature, and the luminescence intensity (RLU value) was measured by FlexStation3 (manufactured by Molecular Devices), from which the luminescence with the medium alone was subtracted to measure the number of viable cells."}}}
{"compound": "human TGF-β1: growth factor, manufactured by PEPROTECH", "values": [{"measurement": "% control of RLU value (ATP measurement, luminescence intensity)", "setting": "[1]; Panc02,03, 3 ng/mL, medium composition of Example 13, on day 6 (head)", "value": 102, "unit": "% Control"}, {"measurement": "% control of RLU value (ATP measurement, luminescence intensity)", "setting": "[1]; Panc02,03, 3 ng/mL, monolayer culture group, culture conditions on day 6 (head)", "value": 95, "unit": "% Control"}, {"measurement": "% control of RLU value (ATP measurement, luminescence intensity)", "setting": "[1]; Panc02,03, 3 ng/mL, negative control group (medium free of deacylated gellan gum, low adhesion plate), on day 6 (head)", "value": 114, "unit": "% Control"}, {"measurement": "% control of RLU value (ATP measurement, luminescence intensity)", "setting": "[1]; Panc02,03, 30 ng/mL, medium composition of Example 13, on day 6 (head)", "value": 106, "unit": "% Control"}, {"measurement": "% control of RLU value (ATP measurement, luminescence intensity)", "setting": "[1]; Panc02,03, 30 ng/mL, monolayer culture group, culture conditions on day 6 (head)", "value": 99, "unit": "% Control"}, {"measurement": "% control of RLU value (ATP measurement, luminescence intensity)", "setting": "[1]; Panc02,03, 30 ng/mL, negative control group (medium free of deacylated gellan gum, low adhesion plate), on day 6 (head)", "value": 122, "unit": "% Control"}]}
{"compound": "CC(=O)Nc1cccc(-n2c(=O)n(C3CC3)c(=O)c3c(Nc4ccc(I)cc4F)n(C)c(=O)c(C)c32)c1", "note": "[Trametinib]", "values": [{"measurement": "% control of RLU value (ATP measurement, luminescence intensity)", "setting": "[2]; A549, day 4 of static culture, 0.001 μM, conventional method", "value": 85, "unit": "% Control"}, {"measurement": "% control of RLU value (ATP measurement, luminescence intensity)", "setting": "[2]; A549, day 4 of static culture, 0.001 μM, non-addition method", "value": 76, "unit": "% Control"}, {"measurement": "% control of RLU value (ATP measurement, luminescence intensity)", "setting": "[2]; A549, day 4 of static culture, 0.001 μM, production method of present invention", "value": 82, "unit": "% Control"}, {"measurement": "% control of RLU value (ATP measurement, luminescence intensity)", "setting": "[2]; A549, day 4 of static culture, 0.003 μM, conventional method", "value": 65, "unit": "% Control"}, {"measurement": "% control of RLU value (ATP measurement, luminescence intensity)", "setting": "[2]; A549, day 4 of static culture, 0.003 μM, non-addition method", "value": 57, "unit": "% Control"}, {"measurement": "% control of RLU value (ATP measurement, luminescence intensity)", "setting": "[2]; A549, day 4 of static culture, 0.003 μM, production method of present invention", "value": 60, "unit": "% Control"}, {"measurement": "% control of RLU value (ATP measurement, luminescence intensity)", "setting": "[2]; A549, day 4 of static culture, 0.01 μM, conventional method", "value": 61, "unit": "% Control"}, {"measurement": "% control of RLU value (ATP measurement, luminescence intensity)", "setting": "[2]; A549, day 4 of static culture, 0.01 μM, non-addition method", "value": 65, "unit": "% Control"}, {"measurement": "% control of RLU value (ATP measurement, luminescence intensity)", "setting": "[2]; A549, day 4 of static culture, 0.01 μM, production method of present invention", "value": 57, "unit": "% Control"}, {"measurement": "% control of RLU value (ATP measurement, luminescence intensity)", "setting": "[2]; A549, day 4 of static culture, 0.03 μM, conventional method", "value": 40, "unit": "% Control"}, {"measurement": "% control of RLU value (ATP measurement, luminescence intensity)", "setting": "[2]; A549, day 4 of static culture, 0.03 μM, non-addition method", "value": 46, "unit": "% Control"}, {"measurement": "% control of RLU value (ATP measurement, luminescence intensity)", "setting": "[2]; A549, day 4 of static culture, 0.03 μM, production method of present invention", "value": 41, "unit": "% Control"}, {"measurement": "% control of RLU value (ATP measurement, luminescence intensity)", "setting": "[2]; A549, day 7 of static culture, 0.001 μM, conventional method", "value": 81, "unit": "% Control"}, {"measurement": "% control of RLU value (ATP measurement, luminescence intensity)", "setting": "[2]; A549, day 7 of static culture, 0.001 μM, non-addition method", "value": 76, "unit": "% Control"}, {"measurement": "% control of RLU value (ATP measurement, luminescence intensity)", "setting": "[2]; A549, day 7 of static culture, 0.001 μM, production method of present invention", "value": 76, "unit": "% Control"}, {"measurement": "% control of RLU value (ATP measurement, luminescence intensity)", "setting": "[2]; A549, day 7 of static culture, 0.003 μM, conventional method", "value": 52, "unit": "% Control"}, {"measurement": "% control of RLU value (ATP measurement, luminescence intensity)", "setting": "[2]; A549, day 7 of static culture, 0.003 μM, non-addition method", "value": 48, "unit": "% Control"}, {"measurement": "% control of RLU value (ATP measurement, luminescence intensity)", "setting": "[2]; A549, day 7 of static culture, 0.003 μM, production method of present invention", "value": 48, "unit": "% Control"}, {"measurement": "% control of RLU value (ATP measurement, luminescence intensity)", "setting": "[2]; A549, day 7 of static culture, 0.01 μM, conventional method", "value": 48, "unit": "% Control"}, {"measurement": "% control of RLU value (ATP measurement, luminescence intensity)", "setting": "[2]; A549, day 7 of static culture, 0.01 μM, non-addition method", "value": 56, "unit": "% Control"}, {"measurement": "% control of RLU value (ATP measurement, luminescence intensity)", "setting": "[2]; A549, day 7 of static culture, 0.01 μM, production method of present invention", "value": 45, "unit": "% Control"}, {"measurement": "% control of RLU value (ATP measurement, luminescence intensity)", "setting": "[2]; A549, day 7 of static culture, 0.03 μM, conventional method", "value": 25, "unit": "% Control"}, {"measurement": "% control of RLU value (ATP measurement, luminescence intensity)", "setting": "[2]; A549, day 7 of static culture, 0.03 μM, non-addition method", "value": 39, "unit": "% Control"}, {"measurement": "% control of RLU value (ATP measurement, luminescence intensity)", "setting": "[2]; A549, day 7 of static culture, 0.03 μM, production method of present invention", "value": 24, "unit": "% Control"}]}
{"compound": "human IGF-1: growth factor, manufactured by PEPROTECH", "values": [{"measurement": "% control of RLU value (ATP measurement, luminescence intensity)", "setting": "[1]; Panc02,03, 10 ng/mL, medium composition of Example 13, on day 6 (head)", "value": 100, "unit": "% Control"}, {"measurement": "% control of RLU value (ATP measurement, luminescence intensity)", "setting": "[1]; Panc02,03, 10 ng/mL, monolayer culture group, culture conditions on day 6 (head)", "value": 101, "unit": "% Control"}, {"measurement": "% control of RLU value (ATP measurement, luminescence intensity)", "setting": "[1]; Panc02,03, 10 ng/mL, negative control group (medium free of deacylated gellan gum, low adhesion plate), on day 6 (head)", "value": 119, "unit": "% Control"}, {"measurement": "% control of RLU value (ATP measurement, luminescence intensity)", "setting": "[1]; Panc02,03, 100 ng/mL, medium composition of Example 13, on day 6 (head)", "value": 110, "unit": "% Control"}, {"measurement": "% control of RLU value (ATP measurement, luminescence intensity)", "setting": "[1]; Panc02,03, 100 ng/mL, monolayer culture group, culture conditions on day 6 (head)", "value": 98, "unit": "% Control"}, {"measurement": "% control of RLU value (ATP measurement, luminescence intensity)", "setting": "[1]; Panc02,03, 100 ng/mL, negative control group (medium free of deacylated gellan gum, low adhesion plate), on day 6 (head)", "value": 121, "unit": "% Control"}]}
